In paper PMC5895880 (Frontiers in Pharmacology, 2018):

Columns and labels:
[1] = test system: alcohol intake; parameters: method as in Loche et al., 2012; Ferraro et al., 2013; settings: preclinical studies; ref Loche et al., 2012; Ferraro et al., 2013; cited from earlier work
[2] = test system: hippocampal neurons; parameters: method as in Tomasini et al., 2016; settings: hippocampal neurons exposed to 0.1 to 10 μM; ref Tomasini et al., 2016; cited from earlier work
[3] = ref Haass-Koffler et al., cited from earlier work
[4] = test system: dopamine, serotonin, GABA, ionotropic glutamate receptors, dopamine and serotonin reuptake systems; parameters: method as in Loche et al., 2012; settings: ref Loche et al., 2012; cited from earlier work
[5] = target: T1, mGluR5 (Rattus norvegicus, UniProt P31424); assay: pCREB (Ser133) levels in primary cultures of rat cortical neurons; assay type: cell-based; settings: rat cortical neurons
Procedure: The experiments have been performed on primary cultures of rat cortical neurons. These cells express mGlu5Rs ([Koga et al., 2010]).
Primary cultures of cerebral cortical neurons were prepared from 1-day-old rats. Cortices free of meninges were dissociated in 0.025% (w/v) trypsin at 37°C followed by mechanical repeated gentle pipetting through wide- and narrow-bore fire-polished Pasteur pipettes in culture medium [Neurobasal medium (Gibco, Grand Island, NY, United States) supplemented with 0.1 mM glutamine (Sigma-Aldrich, Milan, Italy), 10 μg/ml gentamicin (Sigma-Aldrich, Milan, Italy) and 2% B-27® Supplement (50X), serum free (Gibco, Grand Island, NY, United States)]. Cells were counted and then plated on poly-L-lysine (5 μg/ml)-coated multiwells. Cytosine arabinoside (10 μM; Sigma-Aldrich, Milan, Italy) was added within 24 h of plating to prevent glial cell proliferation. After 8 days of in vitro incubation (days in vitro: DIV), cultures were used for experiments.
pCREB measurement was performed with the pCREB (Ser133) Assay kit (PerkinElmer Italy, Milan). Briefly, cortical neurons were seeded in 96 well tissue culture plates at a density of 4,000 cells/well and incubated at 37°C overnight. […] The lysates were transferred to a 96-well ½AreaPlate^TM for the assay. The Acceptor Mix was added for 1 h at room temperature and the Donor mix was added to wells under subdue light and incubate for 1 h at room temperature. At the end of this period, raw “AlphaScreen Signal counts” were measured by an Alpha Technology®-compatible plate reader, using standard AlphaLISA settings (excitation 680 nm, emission 615 nm).
(§1) EC50 values were calculated using non-linear regression [curve fit, log(agonist) vs. response, variable slope, four parameters]. Statistical analysis (F-test) has been performed by using GraphPad Prism 6.0 (GraphPad Software Inc., San Diego, CA, United States). Statistical differences between group means for EC50 values were also assessed by ANOVA followed by Tukey’s multiple comparisons test. Data are reported as mean ± SEM of three independent experiments. A p-value < 0.05 was considered statistically significant.

[6] = target: T1, mGluR5; assay: Calcium mobilization (intracellular calcium levels) in primary cultures of rat cortical astrocytes; assay type: cell-based
Procedure: The experiments have been performed on primary cultures of rat cortical astrocytes. These cells express mGlu5Rs ([Zhang et al., 2005]).
Primary cultures of cerebral cortical astrocytes were obtained from newborn rats (1 or 2 days old). Briefly, cerebral cortices were removed and dissociated by mild trypsinization at 37°C, followed by mechanical trituration to obtain single cells. Cells were suspended in the culture medium [Gibco® DMEM, 5% inactivated fetal bovine serum (Thermo-Fisher Scientific, Waltham, MA, United States), 100 IU/ml penicillin, and 100 μg/ml streptomycin (all from Sigma-Aldrich, Milan, Italy)] and then seeded in 75-cm^2 flasks at a density of 3 × 10^6 cells/flask. The cells were incubated at 37°C in a humidified atmosphere, 5% CO2/95% air. The culture medium was replaced after 24 h and again twice weekly until astrocytes were grown to form a monolayer firmly attached to the bottom of the flask (12 or 14 days after dissection). At cell confluence, flasks were vigorously shaken to separate astrocytes (which remained adherent in the bottom of the flasks) from microglia and oligodendrocytes (which floated on the supernatant) ([Tomasini et al., 2015]). Collected astrocytes were counted and then plated in poly-L-lysine at a density of 50,000 cells/well or 96-well plates black, clear bottom plates (Corning®; Sigma-Aldrich, Milan, Italy).
Subsequently 100 μl/well of the same buffer were added for 10 min. […] After placing cell culture and compound plates into the FlexStation II (Molecular Devices, Sunnyvale, CA, United States), the on-line additions were carried out in a volume of 50 μl /well and fluorescence changes were continuously measured for 2 min at 37°C.
as §1

[7] = target: T1, mGluR5; assay: Inositol phosphate (phosphatidylinositol) turnover in rat hippocampus slices; assay type: cell-based; settings: for Effect on L-quisqualate concentration-response curve, phosphatidylinositol turnover / Effect on CHPG (10 mM)-induced increase in phosphatidylinositol turnover / Effect on glutamate concentration-response curve, phosphatidylinositol turnover: rat hippocampus slices
Procedure: The experiments have been performed on rat hippocampus slices. This preparation expresses mGlu5Rs ([Zhang et al., 2005]; [Purgert et al., 2014]).
On the day of the experiment, the animals were euthanized, their brain promptly isolated and 400 μm thick slices (15–20 mg each) were obtained from both the left and right hippocampi, by using a McIlwain tissue Chopper fresh tissue. The tissue was then allowed to equilibrate for 20 min at room temperature in Krebs’ solution (composition in mM: NaCl 118; KC1 4.4; CaC1_2 1.2; MgS0_4 1.2; KH2P0_4 1.2; NaHC0_3 25; glucose 10) and gassed with a mixture of 95% O2 plus 5% CO2 ([Ferraro et al., 2011]).
Slices were placed in test tubes containing 0.3 ml of oxygenated Krebs solution with myo-[^3H]inositol 0.3 μM (NEN, Boston, MA, United States). […] The reaction was stopped by washing each slice in ice cold Krebs solution containing LiCl 10 mM and by plunging it in 0.94 ml of chloroform-methanol (1:2 v/v). After 10 min, 310 μl of chloroform and 310 μl of water were added and the tubes were shaken for 20 min. The separation of [^3H]inositol phosphates was performed by ion-exchange chromatography on AG 1-X8 resin, 200–400 mesh (Bio-Rad, Hercules, CA, United States), using different elution solutions. The collected IP3-containing fraction was mixed with Safety-Solve cocktail (RPI, Mount Prospect, IL, United States) and the radioactivity was measured by scintillation counting.
as §1

T1 sequence (P31424 21-875 limits assumed): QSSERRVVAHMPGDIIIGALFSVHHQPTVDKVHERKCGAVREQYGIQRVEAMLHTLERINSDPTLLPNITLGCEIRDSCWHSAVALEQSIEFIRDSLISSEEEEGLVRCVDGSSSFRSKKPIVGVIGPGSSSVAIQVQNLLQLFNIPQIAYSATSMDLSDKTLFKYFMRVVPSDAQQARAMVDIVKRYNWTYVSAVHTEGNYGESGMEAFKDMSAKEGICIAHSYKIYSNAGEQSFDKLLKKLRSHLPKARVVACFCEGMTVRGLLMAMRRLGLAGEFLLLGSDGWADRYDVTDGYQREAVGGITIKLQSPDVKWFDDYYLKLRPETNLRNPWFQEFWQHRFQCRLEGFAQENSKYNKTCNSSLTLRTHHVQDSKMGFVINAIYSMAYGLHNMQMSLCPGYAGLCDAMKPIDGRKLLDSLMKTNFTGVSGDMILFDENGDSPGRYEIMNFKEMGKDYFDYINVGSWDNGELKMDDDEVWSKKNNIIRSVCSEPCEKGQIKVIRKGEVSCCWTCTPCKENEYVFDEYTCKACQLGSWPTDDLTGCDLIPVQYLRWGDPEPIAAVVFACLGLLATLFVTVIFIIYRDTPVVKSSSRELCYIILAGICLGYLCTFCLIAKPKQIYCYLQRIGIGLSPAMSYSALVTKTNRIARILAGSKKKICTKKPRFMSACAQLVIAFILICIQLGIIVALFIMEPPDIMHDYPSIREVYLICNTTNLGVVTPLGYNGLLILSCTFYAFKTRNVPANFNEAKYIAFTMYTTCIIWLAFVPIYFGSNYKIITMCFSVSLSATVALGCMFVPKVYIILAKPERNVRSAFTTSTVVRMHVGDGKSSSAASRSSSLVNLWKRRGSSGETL

In the case of `COCCCC(=O)NCc1ccc(C(F)(F)F)cc1` [GET73, N-[4-(trifluoromethyl)benzyl]-4-methoxybutyramide], the Alcohol intake [1] is listed as “reduce alcohol intake”, the Neurotoxicity [2] is listed as “no signs of neurotoxicity” and the Safety and tolerability ([3]; Phase 1 clinical studies, healthy volunteers and alcohol-dependent patients, 2017a,b) is listed as “safe and well-tolerated”. The CNS side effects ([3]; two Phase I clinical trials in healthy volunteers and ongoing Phase 1b/2a study in alcohol dependent subjects, 2017a) was “did not induce any CNS side effects”, the “Affinity for a series of biological targets” value [4] was “did not show affinity” and the “Effect on glutamate concentration-response curve, pCREB” value ([5]; GET73 10 nM–10 μM) was “significant rightward shift”. The “Effect on CHPG concentration-response curve, pCREB” value ([5]; GET73 100 nM–10 μM) was “significant rightward shift”, the “Effect on glutamate concentration-response curve, pCREB” value ([5]; GET73 0.1 and 1 nM) was “ineffective” and the “Effect on CHPG concentration-response curve, pCREB” value ([5]; GET73 0.1–10 nM) was “ineffective”. For the same compound, the “Effect on L-quisqualate concentration-response curve, pCREB” value ([5]; GET73 0.1–100 nM) was “ineffective”, the “Effect on L-quisqualate concentration-response curve, pCREB” value ([5]; GET73 1 and 10 μM) was “significant rightward shift” and the “Agonistic effect on pCREB levels” value ([5]; GET73 alone, 0.1 nM–10 μM) was “ineffective”. The “Effect on CHPG concentration-response curve, intracellular calcium” value ([6]; GET73 0.1 nM–10 μM) was “significant rightward shift”, the “Effect on L-quisqualate concentration-response curve, intracellular calcium” value ([6]; GET73 0.1 nM–10 μM) was “failed to significantly modify” and the “Effect on glutamate concentration-response curve, intracellular calcium” value ([6]; GET73 10 nM–10 μM) was “significant rightward shift”. For the same compound, the “Effect on glutamate concentration-response curve, intracellular calcium” value ([6]; GET73 0.1 and 1 nM) was “ineffective”, the “Agonistic effect on intracellular calcium levels (calcium transient)” value ([6]; GET73 alone, 0.1 nM–10 μM) was “ineffective” and the “Effect on L-quisqualate concentration-response curve, phosphatidylinositol turnover” value ([7]; GET73 10 nM–10 μM) was “significant rightward shift”. The “Effect on CHPG (10 mM)-induced increase in phosphatidylinositol turnover” value ([7]; GET73 100 nM, 1 μM and 10 μM) was “significant reduction”, the “Effect on glutamate concentration-response curve, phosphatidylinositol turnover” value ([7]; GET73 100 nM–10 μM) was “significant rightward shift” and the “Effect on L-quisqualate concentration-response curve, phosphatidylinositol turnover” value ([7]; GET73 0.1 and 1 nM) was “ineffective”. For the same compound, the “Effect on glutamate concentration-response curve, phosphatidylinositol turnover” value ([7]; GET73 0.1 and 1 nM) was “ineffective”, the “Effect on CHPG (10 mM)-induced increase in phosphatidylinositol turnover” value ([7]; GET73 0.1–10 nM) was “ineffective” and the “Agonistic effect on phosphatidylinositol turnover” value ([7]; GET73 alone, 0.1 nM–100 μM, rat hippocampal slices) was “failed to modify”.
